# In patent US9932325B2 (Denali Therapeutics Inc., priority 2015, dated 2018):
# Values joined by “and” are separate entries in the source; they are usually repeats but may differ in a detail not shown here. Identical values can stand only once.
# Target: LRRK2 G2019S enzyme (Homo sapiens (Human), UniProt Q5S007, G2019S)
# Test: LRRK2 G2019S TR-FRET biochemical assay (LRRKtide substrate)
# Conditions: 134 μM ATP
# Description: Detection Reaction Conditions • 1× TR-FRET dilution buffer • 10 mM EDTA • 2 nM antibody • 23° C. reaction temperature • 10 μL total reaction volume
# Compounds were prepared by initially diluting to 1 mM with DMSO. 35 μL of reference compound solution, 35 μL of test compound solution, and 35 μL HPE were successively added to the source plate (384-well assay plate, Labcyte). The plates were centrifuged at 2500 rpm for 1 minute and sealed in foil. […] The assay plate was centrifuged at 2500 rpm for 1 minute, and sealed with foil.
# To perform the enzyme reaction, 5 μL of LRRKtide substrate and kinase mixture in assay buffer was added to all wells of the assay plate. The plate was centrifuged to concentrate the mixture at the bottom of the wells. The assay plate was incubated at 23° C. for 20 minutes. Following incubation, 5 μL of 2× ATP in assay buffer was added to each well, and plates were centrifuged to concentrate the mixture at the bottom of the wells. The plate was incubated at 23° C. for 60 minutes.
# To perform the detection of the reaction, EDTA completely mixed in TR-FRET dilution buffer was added to antibody reagent. 10 μL of detection reagent was added to all wells of each well of the assay plate and the plate was centrifuged to concentrate the mixture at the bottom of the wells. The plate was then incubated at 23° C. for 60 minutes.
# Chain of LRRK2 G2019S enzyme (Q5S007 whole entry G2019S): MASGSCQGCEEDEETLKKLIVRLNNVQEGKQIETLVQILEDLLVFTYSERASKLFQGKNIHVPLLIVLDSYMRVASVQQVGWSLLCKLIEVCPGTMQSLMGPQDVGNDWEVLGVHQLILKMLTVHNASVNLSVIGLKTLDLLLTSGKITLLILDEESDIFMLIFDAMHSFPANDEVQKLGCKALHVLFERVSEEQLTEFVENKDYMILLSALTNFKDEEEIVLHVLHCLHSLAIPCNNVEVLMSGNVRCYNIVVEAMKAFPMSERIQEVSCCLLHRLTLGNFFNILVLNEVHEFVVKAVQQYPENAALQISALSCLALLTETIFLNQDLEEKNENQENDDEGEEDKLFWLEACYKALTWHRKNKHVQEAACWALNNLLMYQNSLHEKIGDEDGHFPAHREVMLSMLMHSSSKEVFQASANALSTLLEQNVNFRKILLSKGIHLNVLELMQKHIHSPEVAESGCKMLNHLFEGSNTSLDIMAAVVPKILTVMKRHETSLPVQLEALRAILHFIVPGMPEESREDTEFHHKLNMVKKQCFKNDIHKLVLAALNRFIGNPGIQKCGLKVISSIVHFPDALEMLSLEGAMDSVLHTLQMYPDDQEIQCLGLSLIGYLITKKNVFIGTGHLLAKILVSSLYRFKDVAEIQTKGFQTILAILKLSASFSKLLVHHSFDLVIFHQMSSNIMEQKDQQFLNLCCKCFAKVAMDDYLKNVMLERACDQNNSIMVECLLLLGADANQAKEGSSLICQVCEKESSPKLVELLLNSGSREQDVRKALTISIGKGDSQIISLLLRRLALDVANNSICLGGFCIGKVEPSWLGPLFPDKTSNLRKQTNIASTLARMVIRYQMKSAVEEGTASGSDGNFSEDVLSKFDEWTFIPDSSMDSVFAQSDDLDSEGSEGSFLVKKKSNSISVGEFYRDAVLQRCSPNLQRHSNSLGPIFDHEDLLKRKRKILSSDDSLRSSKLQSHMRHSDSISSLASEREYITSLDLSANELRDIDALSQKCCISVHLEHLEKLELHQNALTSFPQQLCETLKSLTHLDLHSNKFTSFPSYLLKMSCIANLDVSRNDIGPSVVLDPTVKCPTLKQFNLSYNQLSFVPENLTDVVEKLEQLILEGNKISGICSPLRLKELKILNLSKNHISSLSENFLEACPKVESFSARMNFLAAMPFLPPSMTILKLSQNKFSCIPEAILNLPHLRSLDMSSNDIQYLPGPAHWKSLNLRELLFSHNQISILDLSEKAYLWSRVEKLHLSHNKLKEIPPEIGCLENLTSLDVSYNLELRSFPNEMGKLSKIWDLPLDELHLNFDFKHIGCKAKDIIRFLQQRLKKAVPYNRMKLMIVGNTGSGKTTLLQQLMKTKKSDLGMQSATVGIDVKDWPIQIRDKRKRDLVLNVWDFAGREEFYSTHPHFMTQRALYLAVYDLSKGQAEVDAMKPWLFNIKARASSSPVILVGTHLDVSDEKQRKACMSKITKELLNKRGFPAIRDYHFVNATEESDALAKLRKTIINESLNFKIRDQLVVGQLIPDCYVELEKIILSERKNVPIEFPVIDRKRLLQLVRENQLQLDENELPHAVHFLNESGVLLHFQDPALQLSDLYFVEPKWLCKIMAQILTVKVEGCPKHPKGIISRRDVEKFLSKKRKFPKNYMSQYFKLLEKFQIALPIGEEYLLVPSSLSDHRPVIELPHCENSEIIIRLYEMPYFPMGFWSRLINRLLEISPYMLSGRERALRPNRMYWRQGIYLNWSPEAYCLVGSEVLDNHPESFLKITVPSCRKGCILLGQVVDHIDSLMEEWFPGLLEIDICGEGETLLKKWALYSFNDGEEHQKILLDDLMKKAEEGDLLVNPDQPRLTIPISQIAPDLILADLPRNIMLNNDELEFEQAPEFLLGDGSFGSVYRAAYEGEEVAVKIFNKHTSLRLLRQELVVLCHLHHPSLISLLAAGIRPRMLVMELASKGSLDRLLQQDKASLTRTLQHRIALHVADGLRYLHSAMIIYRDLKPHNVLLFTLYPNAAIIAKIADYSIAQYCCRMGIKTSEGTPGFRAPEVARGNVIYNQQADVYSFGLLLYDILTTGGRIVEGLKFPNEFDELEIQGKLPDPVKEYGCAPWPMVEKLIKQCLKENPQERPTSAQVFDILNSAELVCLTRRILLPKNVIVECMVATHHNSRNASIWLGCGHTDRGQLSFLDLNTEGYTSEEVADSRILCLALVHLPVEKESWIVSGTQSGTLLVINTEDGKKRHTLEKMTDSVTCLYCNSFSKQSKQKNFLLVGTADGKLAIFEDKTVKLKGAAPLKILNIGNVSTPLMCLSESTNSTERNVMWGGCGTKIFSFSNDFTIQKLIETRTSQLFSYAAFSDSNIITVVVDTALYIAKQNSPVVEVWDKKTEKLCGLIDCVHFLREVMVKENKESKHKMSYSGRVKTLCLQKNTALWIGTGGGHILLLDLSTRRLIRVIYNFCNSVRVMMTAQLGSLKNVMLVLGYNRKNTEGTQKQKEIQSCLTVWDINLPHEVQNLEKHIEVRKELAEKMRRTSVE
row,IC50,SMILES
1,< 30 nM,"N#C[C@@H]1CC1n1cc(Nc2ncc(C(F)(F)F)c(NCC(F)F)n2)c(C2CC2)n1 (single isomer, unassigned) [Compound 211]"
2,30 to 60 nM,COc1nc(Nc2cc(C(C)(C)n3nccn3)nn2C2CC2)ncc1Br [Compound 157]
3,< 30 nM,"COc1nc(Nc2cn(C3(C)CCNC3=O)nc2C)ncc1Br (single isomer, unassigned) [Compound 64A]"
4,30 to 60 nM,CNc1nc(Nc2cn(C3CC3)nc2[C@H]2C[C@@H](n3nccn3)C2)ncc1C(F)(F)F [Compound 199]
5,< 30 nM,CNc1nc(Nc2cn(C(C)(C)C#N)nc2C)ncc1Br [Compound 42]
6,< 30 nM,CNc1nc(Nc2cnn(CC34CC(C#N)(C3)C4)c2C)ncc1C(F)(F)F [Compound 7]
7,< 30 nM,"CCNc1nc(Nc2cn(C3C[C@@H]3C#N)nc2C2CC2)ncc1Br (single isomer, unassigned) [Compound 214]"
8,< 30 nM,"CCNc1nc(Nc2cnn(C3CNCCC3(F)F)c2C)ncc1C(F)(F)F (single isomer, unassigned) [Compound 200]"
9,< 30 nM,[2H]C([2H])([2H])c1nn(C(C#N)(C([2H])([2H])[2H])C([2H])([2H])[2H])cc1Nc1ncc(C(F)(F)F)c(NCC)n1 [Compound 44]
10,< 30 nM,[2H]C([2H])([2H])n1nc([C@]23C[C@H]2COC3=O)cc1Nc1ncc(C(F)(F)F)c(NCC)n1 [Compound 185]
11,< 30 nM,"COc1nc(Nc2cn(C3(C)CCNC3=O)nc2C)ncc1Br (single isomer, unassigned) [Compound 64B]"
12,< 30 nM,CCNc1nc(Nc2cc(C(C)(C)S(C)(=O)=O)nn2C2CC2)ncc1Br [Compound 140]
13,< 30 nM,CCNc1nc(Nc2cc(-c3ncoc3C)nn2C2CC2)ncc1C(F)(F)F [Compound 142]
14,< 30 nM,"CNc1nc(Nc2cn(C3C[C@H]3C#N)nc2C2CC2)ncc1C(F)(F)F (single isomer, unassigned) [Compound 209]"
15,< 30 nM,"CCNc1nc(Nc2cnn(C3CCCN(CC(F)F)C3)c2C)ncc1C(F)(F)F (single isomer, unassigned) [Compound 116]"
16,< 30 nM,CCNc1nc(Nc2cc(N3CCCS3(=O)=O)nn2C2CC2)ncc1Br [Compound 159]
17,< 30 nM,"CCN1CCC(F)(F)C(n2ncc(Nc3ncc(C(F)(F)F)c(NC)n3)c2Cl)C1 (single isomer, unassigned) [Compound 202]"
18,< 30 nM,[2H]C([2H])([2H])c1nn(C(C#N)(C([2H])([2H])[2H])C([2H])([2H])[2H])cc1Nc1ncc(C(F)(F)F)c(NCC(F)F)n1 [Compound 46]
19,< 30 nM,CNc1nc(Nc2cn(C(C)(C)c3ccn(C)n3)nc2C)ncc1C(F)(F)F [Compound 15]
20,< 30 nM,CNc1nc(Nc2cnn3c2OCC2(CC2)C3)ncc1C(F)(F)F [Compound 17]
21,< 30 nM,Cn1nc(C(C)(C)n2nccn2)cc1Nc1ncc(C(F)(F)F)c(NC2CC2)n1 [Compound 69]
22,< 30 nM,CCNc1nc(Nc2cc(C(C)n3nccn3)nn2C2CC2)ncc1C(F)(F)F (stereo not shown) [Compound 137]
23,< 30 nM,CCNc1nc(Nc2cc(C(C)(C)n3nccn3)nn2CC)ncc1C(F)(F)F [Compound 129]
24,< 30 nM,CCNc1nc(Nc2cc(C3(C)COC3)nn2C2CC2)ncc1C(F)(F)F [Compound 145]

row,IC50,SMILES
1,< 30 nM,[2H]C([2H])([2H])n1nc(C(C)(C)n2nccn2)cc1Nc1ncc(Br)c(OC2CC2)n1 [Compound 81]
2,< 30 nM,CCNc1nc(Nc2cc(C3(C)CCOC3=O)nn2C2CC2)ncc1Br (stereo not shown) [Compound 151]
3,< 30 nM,Cc1nn(C(C)(C)C#N)cc1Nc1ncc(Br)c(NCC(F)F)n1 [Compound 73]
4,< 30 nM and 3.41 nM,CCNc1nc(Nc2cnn([C@H]3C[C@@H](C#N)C3)c2C)ncc1C(F)(F)F [Compound 27]
5,< 30 nM,CNc1nc(Nc2c[nH]nc2C)ncc1C(F)(F)F [Compound 109]
6,< 30 nM,"COc1nc(Nc2cn(C3(C)CCOC3=O)nc2C)ncc1Br (single isomer, unassigned) [Compound 102]"
7,< 30 nM,Cc1nn(C(C)(C)C#N)cc1Nc1ncc(Br)c(NC2CC2)n1 [Compound 66]
8,< 30 nM,"COc1nc(Nc2cn(C3(C)CCOC3=O)nc2C)ncc1Br (single isomer, unassigned) [Compound 90]"
9,< 30 nM,COc1nc(Nc2cnn(C3CCC3)c2C#N)ncc1Br [Compound 37]
10,< 30 nM,"CCNc1nc(Nc2cnn(C3CN(CC)CCC3(F)F)c2Cl)ncc1C(F)(F)F (single isomer, unassigned) [Compound 205]"
11,< 30 nM,"CNc1nc(Nc2cnn(C3CN(C4COC4)CCC3(F)F)c2Cl)ncc1C(F)(F)F (single isomer, unassigned) [Compound 29]"
12,< 30 nM,"CCNc1nc(Nc2cn(C3(C)CCCC3=O)nc2C)ncc1C(F)(F)F (stereo not shown) [Compound 194, 2-[4-[[4-(ethylamino)-5-(trifluoromethyl)pyrimidin-2-yl]amino]-3-methyl-pyrazol-1-yl]-2-methyl-cyclopentanone]"
13,< 30 nM,"CCNc1nc(Nc2cn(C3(CF)CCOC3=O)nc2C)ncc1C(F)(F)F (single isomer, unassigned) [Compound 216]"
14,< 30 nM,"CCNc1nc(Nc2cnn(C3CCCN(CC(F)F)C3)c2C)ncc1C(F)(F)F (single isomer, unassigned) [Compound 92]"
15,< 30 nM,"CCN1CCC(F)(F)C(n2ncc(Nc3ncc(C(F)(F)F)c(NC)n3)c2Cl)C1 (single isomer, unassigned) [Compound 203]"
16,< 30 nM,CCNc1nc(Nc2cn(S(C)(=O)=O)nc2C2CC2)ncc1Br [Compound 111]
17,< 30 nM,Cc1nn(C(C)(C)C#N)cc1Nc1ncc(Cl)c(OC2CC2)n1 [Compound 60]
18,< 30 nM,Cc1nn(C(C)(C)C#N)cc1Nc1ncc(C(F)(F)F)c(NC(CF)CF)n1 [Compound 76]
19,< 30 nM,[2H]C([2H])([2H])n1nc(C(C)(C)n2cccn2)cc1Nc1ncc(C(F)(F)F)c(NCC)n1 [Compound 70]
20,< 30 nM,"CCNc1nc(Nc2cc([C@@]3(C)CCOC3=O)nn2C2CC2)ncc1C(F)(F)F [Compound 144, (3R)-3-[1-cyclopropyl-5-[[4-(ethylamino)-5-(trifluoromethyl)pyrimidin-2-yl]amino]pyrazol-3-yl]-3-methyl-tetrahydrofuran-2-one]"
21,< 30 nM,CCNc1nc(Nc2cn(C(C)(C)C#N)nc2C)ncc1Br [Compound 43]
22,< 30 nM,Cc1nn(C(C)(C)C#N)cc1Nc1ncc(Cl)c(NC2CC2)n1 [Compound 72]
23,< 30 nM,CCNc1nc(Nc2cc(C(C)(C)n3nccn3)nn2C2CC2)ncc1Br [Compound 126]
24,< 30 nM,CCNc1nc(Nc2cnn(C3CC(N4CCN(CC(F)F)CC4)C3)c2C)ncc1C(F)(F)F (stereo not shown) [Compound 121]

row,SMILES,IC50
1,[2H]C([2H])([2H])Nc1nc(Nc2cn(C(C)(C)C#N)nc2C([2H])([2H])[2H])ncc1C(F)(F)F [Compound 63],< 30 nM
2,[2H]C([2H])([2H])C(C#N)(n1cc(Nc2ncc(C(F)(F)F)c(NC)n2)c(C)n1)C([2H])([2H])[2H] [Compound 80],< 30 nM
3,[2H]C([2H])([2H])Nc1nc(Nc2cn(C(C#N)(C([2H])([2H])[2H])C([2H])([2H])[2H])nc2C([2H])([2H])[2H])ncc1C(F)(F)F [Compound 40],< 30 nM
4,CNc1nc(Nc2cn(C3CC4CCC(C3)N4C)nc2C)ncc1C(F)(F)F (stereo not shown) [Compound 2],> 60 nM
